This assay concerns P388 leukemia ip, CD2F1 mice, survival T/C. The assay is described as follows: NCI In Vivo Anticancer Drug Screen. Data for tumor model P388 Leukemia (intraperitoneal) in CD2F1 (CDF1) mice. The settings on record: endpoint: median survival time, higher = longer survival. An outline of the steps: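 Mice carrying the transplanted tumor received test compound or vehicle. Survival was recorded in each group, and the value is the treated-group measurement divided by that of the vehicle-treated control group.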

[1] abbreviates: dose: 50.0 mg/kg/injection, schedule: Q01DX009 (ip), vehicle: saline with Tween-80.
[2] abbreviates: dose: 100.0 mg/kg/injection, schedule: Q01DX009 (ip), vehicle: saline with Tween-80.
[3] abbreviates: dose: 200.0 mg/kg/injection, schedule: Q01DX009 (ip), vehicle: saline with Tween-80.
The mark [4] stands for this setting: dose: 25.0 mg/kg/injection, schedule: Q01DX009 (ip), vehicle: saline with Tween-80.
[5] abbreviates: dose: 60.0 mg/kg/injection, schedule: Q01DX005 (ip), vehicle: saline with Tween-80.
The mark [6] stands for this setting: dose: 120.0 mg/kg/injection, schedule: Q01DX005 (ip), vehicle: saline with Tween-80.
The mark [7] stands for this setting: dose: 240.0 mg/kg/injection, schedule: Q01DX005 (ip), vehicle: saline with Tween-80.
Setting [8] is: dose: 50.0 mg/kg/injection, schedule: Q01DX009 (ip), vehicle: Klucel (hydroxypropylcellulose) (HPC).
The mark [9] stands for this setting: dose: 12.5 mg/kg/injection, schedule: Q01DX005 (ip), vehicle: saline with Tween-80.
[10] abbreviates: dose: 25.0 mg/kg/injection, schedule: Q01DX005 (ip), vehicle: saline with Tween-80.
[11] abbreviates: dose: 50.0 mg/kg/injection, schedule: Q01DX005 (ip), vehicle: saline with Tween-80.
[12] abbreviates: dose: 100.0 mg/kg/injection, schedule: Q01DX009 (ip), vehicle: Klucel (hydroxypropylcellulose) (HPC).
The mark [13] stands for this setting: dose: 200.0 mg/kg/injection, schedule: Q01DX009 (ip), vehicle: Klucel (hydroxypropylcellulose) (HPC).

Values joined by “and” are separate entries in the source; they are usually repeats but may differ in a detail not shown here. Equal entries are not always repeated. Toxic doses and inconclusive results are not listed.

As to `Oc1nc(-c2ccccc2)sc1-c1ccccc1`, the T/C was 89 % of control under setting [1], 92 % of control under setting [2] and 104 % of control under setting [3].

Regarding `O=C(Nc1ncnc2nc(-c3ccccc3)[nH]c12)c1ccccc1`, the T/C was 107 % of control (dose: 60.0 mg/kg/injection, schedule: Q01DX005 (ip), vehicle: Klucel (hydroxypropylcellulose) (HPC)); 95 % of control (dose: 120.0 mg/kg/injection, schedule: Q01DX005 (ip), vehicle: Klucel (hydroxypropylcellulose) (HPC)); 95 % of control (dose: 240.0 mg/kg/injection, schedule: Q01DX005 (ip), vehicle: Klucel (hydroxypropylcellulose) (HPC)).

Regarding `O=C(c1ccc(Cl)cc1)c1no[n+]([O-])c1C(=O)c1ccc(Cl)cc1`, the T/C under setting [4] is 115 % of control, the T/C under setting [1] is 111 % of control and the T/C under setting [3] was 118 % of control.

As for `CC1c2c(cc(OC(=O)c3cccc(S(=O)(=O)F)c3)nc2OC(=O)c2cccc(S(=O)(=O)F)c2)C(=O)N1Cc1ccccc1` (stereo not given), the T/C is 97 % of control (dose: 6.25 mg/kg/injection, schedule: Q01DX009 (ip), vehicle: Klucel (hydroxypropylcellulose) (HPC)); 88 % of control (dose: 12.5 mg/kg/injection, schedule: Q01DX009 (ip), vehicle: Klucel (hydroxypropylcellulose) (HPC)); 87 % of control (dose: 25.0 mg/kg/injection, schedule: Q01DX009 (ip), vehicle: Klucel (hydroxypropylcellulose) (HPC)).

On to `C=C(C#N)N(C)c1ccccc1`, for which the T/C (dose: 3.12 mg/kg/injection, schedule: Q01DX005 (ip), vehicle: Klucel (hydroxypropylcellulose) (HPC)) was 94 % of control; the T/C (dose: 6.25 mg/kg/injection, schedule: Q01DX005 (ip), vehicle: Klucel (hydroxypropylcellulose) (HPC)) was 111 % of control; the T/C (dose: 12.5 mg/kg/injection, schedule: Q01DX005 (ip), vehicle: Klucel (hydroxypropylcellulose) (HPC)) is 94 % of control.

For the molecule `CCCCCCCC[N+]1([O-])CC[N+](C)([O-])CC1` (stereo not given), the T/C by setting is: (dose: 60.0 mg/kg/injection, schedule: Q01DX005 (ip), vehicle: saline) 100 % of control; (dose: 120.0 mg/kg/injection, schedule: Q01DX005 (ip), vehicle: saline) 101 % of control; (dose: 240.0 mg/kg/injection, schedule: Q01DX005 (ip), vehicle: saline) 102 % of control.

With `Cc1cccc(C(=O)OCCBr)c1`, the T/C (dose: 18.75 mg/kg/injection, schedule: Q01DX009 (ip), vehicle: saline sonified) is 104 % of control; the T/C (dose: 37.5 mg/kg/injection, schedule: Q01DX009 (ip), vehicle: saline sonified) is 109 % of control; the T/C (dose: 49.5 mg/kg/injection, schedule: Q01DX009 (ip), vehicle: saline sonified) was 109 % of control; the T/C (dose: 75.0 mg/kg/injection, schedule: Q01DX009 (ip), vehicle: saline sonified) was 104 % of control; the T/C (dose: 112.5 mg/kg/injection, schedule: Q01DX009 (ip), vehicle: saline sonified) was 104 % of control.

`Cc1ccc2c(c1)C1(SC(C)C(=O)N1c1ccc(Cl)cc1)C(=O)N2CN1CCOCC1` (stereo not given): the T/C is, setting by setting: under setting [5], 113 % of control; under setting [6], 100 % of control; under setting [7], 121 % of control.

For the molecule `NC(=S)COc1ccccc1`, the T/C under setting [1] was 105 % of control, the T/C under setting [2] was 101 % of control and the T/C under setting [3] was 105 % of control.

On to `N#CC12CCCC(=O)N1c1ccccc1S2` (stereo not given), for which the T/C runs as follows: under setting [5], 108 % of control; under setting [6], 104 % of control; under setting [7], 95 % of control.

`C=CC12CCCCC1CCC(=O)C2` (stereo not given): the T/C under setting [8] is 111 % of control.

`CC1(C)C2CCC([CH2][Hg][Cl])C1C2` (stereo not given): the T/C was 100 % of control (dose: 2.44 mg/kg/injection, schedule: Q01DX009 (ip), vehicle: saline with Tween-80); 100 % of control (dose: 3.66 mg/kg/injection, schedule: Q01DX009 (ip), vehicle: saline with Tween-80); 113 % of control (dose: 5.55 mg/kg/injection, schedule: Q01DX009 (ip), vehicle: other); 100 % of control and 91 % of control (dose: 5.55 mg/kg/injection, schedule: Q01DX009 (ip), vehicle: saline with Tween-80); 105 % of control (dose: 6.25 mg/kg/injection, schedule: Q04DX003 (ip), vehicle: other); 108 % of control and 95 % of control (dose: 8.33 mg/kg/injection, schedule: Q01DX009 (ip), vehicle: saline with Tween-80). Further, the T/C is 86 % of control (dose: 12.5 mg/kg/injection, schedule: Q01DX009 (ip), vehicle: other); 100 % of control (dose: 12.5 mg/kg/injection, schedule: Q04DX003 (ip), vehicle: other); 100 % of control (dose: 25.0 mg/kg/injection, schedule: Q04DX003 (ip), vehicle: other).

As to `OC1CC2CCC(N2)C1c1ccccc1` (stereo not given), the T/C reads like this: under setting [9], 94 % of control; under setting [10], 86 % of control; under setting [11], 101 % of control and 93 % of control.

`CN(C)c1ccc(C(O)C(N)=O)cc1` (stereo not given): the T/C is, setting by setting: (dose: 6.25 mg/kg/injection, schedule: Q04DX003 (ip), vehicle: saline) 100 % of control; (dose: 12.5 mg/kg/injection, schedule: Q04DX003 (ip), vehicle: saline) 104 % of control; (dose: 25.0 mg/kg/injection, schedule: Q04DX003 (ip), vehicle: saline) 100 % of control.

For `Nc1cccc2c1C(=O)c1nccnc1C2=O`, the T/C is, setting by setting: (dose: 100.0 mg/kg/injection, schedule: Q01DX001 (ip), vehicle: Klucel + Tween-80) 98 % of control; (dose: 200.0 mg/kg/injection, schedule: Q01DX001 (ip), vehicle: Klucel + Tween-80) 98 % of control; (dose: 400.0 mg/kg/injection, schedule: Q01DX001 (ip), vehicle: Klucel + Tween-80) 97 % of control.

For `N#C/C(=C1C=C/C(=N/O)C=C/1Cl)c1ccccc1`, the T/C was 95 % of control under setting [1]; 93 % of control under setting [2]; 94 % of control under setting [3]; 94 % of control (dose: 400.0 mg/kg/injection, schedule: Q01DX009 (ip), vehicle: saline with Tween-80).

For the molecule `COC12[C@@H]3N[C@@H]3CN1C1=C(C(=O)C(NCCSSCCNC3=C(C)C(=O)C4=C(C3=O)C(COC(N)=O)[C@]3(OC)C5N[C@@H]5CN43)=C(C)C1=O)[C@@H]2COC(N)=O` (stereo not given in full), the T/C (dose: 3.12 mg/kg/injection, schedule: Q01DX001 (ip), vehicle: DMSO) was 157 % of control; the T/C (dose: 6.25 mg/kg/injection, schedule: Q01DX001 (ip), vehicle: DMSO) is 161 % of control; the T/C (dose: 12.5 mg/kg/injection, schedule: Q01DX001 (ip), vehicle: DMSO) is 177 % of control; the T/C (dose: 25.0 mg/kg/injection, schedule: Q01DX001 (ip), vehicle: DMSO) was 233 % of control.

Consider `CNC(=O)c1cc([N+](=O)[O-])cnc1NC`, for which the T/C runs as follows: under setting [8], 95 % of control; under setting [12], 98 % of control; under setting [13], 92 % of control.

On to `O=[N+]([O-])/C=C/c1cc(Cl)c(/C=C/[N+](=O)[O-])cc1Cl`, for which the T/C reads like this: (dose: 50.0 mg/kg/injection, schedule: Q01DX005 (ip), vehicle: Klucel (hydroxypropylcellulose) (HPC)) 108 % of control and 121 % of control; (dose: 100.0 mg/kg/injection, schedule: Q01DX005 (ip), vehicle: Klucel (hydroxypropylcellulose) (HPC)) 120 % of control and 122 % of control; (dose: 200.0 mg/kg/injection, schedule: Q01DX005 (ip), vehicle: Klucel (hydroxypropylcellulose) (HPC)) 106 % of control and 123 % of control; (dose: 400.0 mg/kg/injection, schedule: Q01DX005 (ip), vehicle: Klucel (hydroxypropylcellulose) (HPC)) 97 % of control.

As for `CN(C)c1cc(N(C)C)c2cc(Cl)ccc2n1`, the T/C under setting [8] was 106 % of control and the T/C under setting [12] was 100 % of control.

`CCC(=O)NC1=C(Cl)C(=O)C(NC(=O)CC)=C(Cl)C1=O`: the T/C reads like this: under setting [8], 98 % of control; under setting [12], 98 % of control.

Take `CC(=O)Oc1ccc(CC(=O)O)cc1`: the T/C is 107 % of control under setting [4], 103 % of control under setting [1], 103 % of control under setting [2] and 107 % of control under setting [3].

Turning to `COc1ccc(OC)c2c(Cl)ccnc12`, the T/C is 99 % of control under setting [9], 103 % of control under setting [10] and 97 % of control under setting [11].

In the case of `C=C(CCCCC)C(=O)/C=C/c1ccccc1`, the T/C by setting is: under setting [8], 103 % of control; under setting [12], 107 % of control; under setting [13], 118 % of control.
